Here are results for 1 substance from PMC10319809, “Chronic UCN2 treatment desensitizes CRHR2 and improves insulin sensitivity” (Nature Communications, 2023).

For the experiment, the target named is T1, hCRHR2α Gq (Homo sapiens, UniProt Q13324).
T1 construct: expressed in transfected cells; host or cells: HEK293 cells (Millipore Sigma), transient PEI co-transfection with biosensor plasmids at Domain Therapeutics
T1 sequence (Q13324 1-411): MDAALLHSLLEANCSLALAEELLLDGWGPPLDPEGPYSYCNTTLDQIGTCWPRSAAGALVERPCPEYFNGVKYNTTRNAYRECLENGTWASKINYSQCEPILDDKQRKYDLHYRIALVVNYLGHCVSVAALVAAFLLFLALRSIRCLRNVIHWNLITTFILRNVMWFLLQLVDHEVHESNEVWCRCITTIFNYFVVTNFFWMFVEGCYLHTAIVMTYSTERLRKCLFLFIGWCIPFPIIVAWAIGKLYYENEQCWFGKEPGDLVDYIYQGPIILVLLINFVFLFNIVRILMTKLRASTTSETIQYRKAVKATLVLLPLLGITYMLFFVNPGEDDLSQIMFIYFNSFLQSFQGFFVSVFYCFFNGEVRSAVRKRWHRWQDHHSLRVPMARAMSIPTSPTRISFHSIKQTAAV
The experiment in a line: ebBRET EMTA, Gq biosensor. In kind it is cell-based. The settings on record: HEK293 cells, CRHR2a, n = 2 independent experiments. Here is the method: Typically, GPCR desensitization is carried out through the recruitment of β-Arrestins or alternative G-proteins to the receptor. To identify whether these proteins are recruited to CRHR2 in response to UCN2, enhanced bystander bioluminescence resonance energy transfer (ebBRET)-based effector membrane translocation assays (EMTA) were carried out in HEK293 cells[28],[29]. Cells were co-transfected with plasmids expressing unmodified CRHR2a (alpha isoform) and one of various pathway-specific biosensors. […]
Effector membrane translocation biosensor assays (bioSensAll®) were conducted at Domain Therapeutics NA Inc. (Montreal, QC, Canada) and described in cells[28],[29]. […] Briefly, DNA and PEI were diluted separately in 150 mM NaCl, mixed and then incubated for at least 20 min at room temperature (note: salmon sperm DNA (Invitrogen) was used to adjust the total amount of DNA transfected to a final quantity of 1 ug per mL of cell culture to be transfected). During the 20-minute incubation, HEK293 cells were detached, counted and resuspended into cell culture medium to a final density of 350,000 cells per mL. […] Cells were then incubated at room temperature for 10 min and BRET readings subsequently collected with a 0.4 s integration time on a Synergy NEO plate reader (BioTek Instruments, Inc., USA; filters: 400 nm/70 nm, 515 nm/20 nm). […]

Where no end group is shown, it is not given here.

Regarding “IVLSLDVPIGLLQILLEQARARAAREQATTNARILARVGHC-NH2 (C-terminus assumed) [UCN2, Urocortin 2]”, the Gq recruitment entry is “not recruited”.
